The values below come from article PMC7649969, “Pyrazolyl-pyrimidones inhibit the function of human solute carrier protein SLC11A2 (hDMT1) by metal chelation” (RSC Medicinal Chemistry, 2020).

“Also recorded” adds a separate entry of the source.

In one series the target is T1, hDMT1 (Homo sapiens, UniProt P49281).
T1 sequence (P49281 1-568): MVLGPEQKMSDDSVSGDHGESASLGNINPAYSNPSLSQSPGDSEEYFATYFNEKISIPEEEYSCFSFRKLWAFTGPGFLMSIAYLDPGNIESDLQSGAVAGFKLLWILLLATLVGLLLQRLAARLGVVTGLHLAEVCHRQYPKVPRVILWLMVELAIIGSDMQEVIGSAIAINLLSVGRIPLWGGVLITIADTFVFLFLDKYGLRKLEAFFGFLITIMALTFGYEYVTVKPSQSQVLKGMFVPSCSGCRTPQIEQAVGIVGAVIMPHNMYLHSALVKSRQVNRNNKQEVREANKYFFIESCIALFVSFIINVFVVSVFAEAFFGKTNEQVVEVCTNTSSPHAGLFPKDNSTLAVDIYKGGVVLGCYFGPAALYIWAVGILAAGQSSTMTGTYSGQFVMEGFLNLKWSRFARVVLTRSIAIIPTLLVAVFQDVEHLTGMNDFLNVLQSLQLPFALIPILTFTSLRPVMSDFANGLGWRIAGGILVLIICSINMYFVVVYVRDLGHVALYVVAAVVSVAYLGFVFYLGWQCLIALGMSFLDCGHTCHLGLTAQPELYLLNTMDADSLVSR
Kind of series: two-electrode voltage-clamp electrophysiology of Fe2+ evoked currents in hDMT1-injected Xenopus oocytes. Type of series: cell-based. As to conditions: Fe2+ 20 μM. As for the experimental part: Fig. 3 Characterization of Fe^2+ transport inhibition by 1 and 13 in X. laevis oocytes (collected from frogs under license number BE60/18 conceded by the Veterinärdienst des Kantons BE, Sekretariat Tierversuche). (a) Upper panel: Average ^55Fe^2+-uptake (20 μM) by hDMT1-expressing and non-injected oocytes in the absence and the presence of the indicated compounds (10 μM). Data was normalized to ^55Fe^2+-uptake (pmol min^–1) in the absence of compounds represented as mean ± SD (16–29 oocytes). Lower panel: Net uptake of ^55Fe^2+ (20 μM) by hDMT1 in the absence and the presence of the indicated compounds (10 μM). For each batch of oocytes, uptake values were corrected for unspecific iron uptake in non-injected oocytes. Data were normalized to the mean iron uptake by hDMT1 WT (pmol min^–1) and represented as mean ± SD (14–34 oocytes). (b and c) Electrophysiology. […] For each trace, recorded currents were corrected for the background currents observed without substrate. (b) Representative traces recorded with hDMT1 injected oocytes (upper panel) and non-injected oocytes (lower panel). […] Statistical differences were assessed using T-test or Mann–Whitney U test (Fe^2+-uptake by hDMT1 WT vs. non-injected oocytes or vs. compound); p > 0.05 = ns; p < 0.001 = ***.
250 µM non-radioactive Fe2+ and 100 µM Ascorbic acid. Next, oocytes were solubilized with SDS 10% and 55Fe2+ content was determined by scintillation counting. To determine the total activity of the hDMT1-expressing oocytes, uptake of 55Fe2+ was determined also in the absence of any compound. […]
Electrophysiology methods. […] Then, the membrane voltage was held at -50 mV (Vh), and the current (nA) required to keep Vh constant was recorded along the experiments. These currents were measured with an OC-725 amplifier (Warner Instruments), low-pass filtered at 500 Hz, digitized at 5 kHz with a Digidata 1440 data acquisition system and captured using pClamp 10 software (Axon Instruments). […]
(In general: Two-electrode voltage clamp holds a large cell at a set potential and records current.)

Series [1] can be described thus: solubility noted at HPLC purity determination. Type of series: physicochemical. As for the experimental part: Table S3: Purity of the final compounds.
Compound Retention time Purity [%] HPLC
aMethod A: in 2.2 min from 100 % A to 10 0% D, then staying at 100 % D. Method B: in 7.5 min from 10 0% A to 100 % D,

The nature of series [2]: isothermal titration calorimetry with Cd2+. In kind it is binding. Conditions: pH 7.4, 25 °C, read-out: apparent dissociation constant KD. (ITC needs no label: the signal is the heat of the interaction.)
The nature of series [3]: calcein quenching (competition) assay to detect Fe2+ chelation. As to conditions: pH 5.5, 2 μM Fe2+, 1 μM calcein.

For the molecule `N=C(N)SCc1cccc2c1oc1c(CSC(=N)N)cccc12` [Compound 1, reference compound], the IC50 on hDMT1 (currents at -70 mV, dose-response 0.01-10 μM, read-out: IC50 of inhibition of Fe2+ evoked currents) is 0.14 µM.

Turning to `Cc1nn(-c2ccccn2)c(O)c1C(=O)Nc1cccc(C(F)(F)F)c1` [Compound 3, reference compound], the “solubility in water and acetonitrile” value in series [1] was “not soluble in water and acetonitrile”.

Take `Cc1cc(=O)[nH]c(-n2nc3c(c2C)CCCC3)n1` [Compound 13]: the “effect on hDMT1-induced currents” value on hDMT1 (compound up to 10 μM) is given as “no measurable effect on the recorded currents; also recorded: did not modulate hDMT1-induced currents”. Further, at hDMT1 (currents at -70 mV, dose-response 0.01-10 μM), the “IC50 of inhibition of Fe2+ evoked currents” value is “did not fit to the equation”. In addition, the Kd in series [2] amounted to 6.4 µM. In addition, in series [3], the “iron chelation in calcein competition assay” value is recorded as “significant level of iron chelation”.

The IC50 is the midpoint of a concentration-inhibition curve.
